In assay [1] the target is T1, MTHFD1 recombinant human enzyme (Homo sapiens, UniProt P11586).
T1 sequence (P11586 2-291 limits assumed): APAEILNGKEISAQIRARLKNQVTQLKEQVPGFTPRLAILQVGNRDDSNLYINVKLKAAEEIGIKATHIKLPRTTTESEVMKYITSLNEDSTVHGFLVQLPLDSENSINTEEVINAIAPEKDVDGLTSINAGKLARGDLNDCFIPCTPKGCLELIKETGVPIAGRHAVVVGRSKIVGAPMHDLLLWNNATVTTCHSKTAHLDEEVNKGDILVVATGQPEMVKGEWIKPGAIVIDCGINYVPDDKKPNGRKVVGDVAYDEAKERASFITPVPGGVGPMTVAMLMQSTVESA
The experiment in a line: MTHFD1 inhibition assay (NAD(P)H-Glo luminescence). Particulars: MTHFD1 IC50, recombinant human enzyme 200 nM, NADP, band.

Assay [2] has as its target T2, MTHFD2 recombinant human enzyme (Homo sapiens, UniProt P13995).
T2 sequence (P13995 36-350): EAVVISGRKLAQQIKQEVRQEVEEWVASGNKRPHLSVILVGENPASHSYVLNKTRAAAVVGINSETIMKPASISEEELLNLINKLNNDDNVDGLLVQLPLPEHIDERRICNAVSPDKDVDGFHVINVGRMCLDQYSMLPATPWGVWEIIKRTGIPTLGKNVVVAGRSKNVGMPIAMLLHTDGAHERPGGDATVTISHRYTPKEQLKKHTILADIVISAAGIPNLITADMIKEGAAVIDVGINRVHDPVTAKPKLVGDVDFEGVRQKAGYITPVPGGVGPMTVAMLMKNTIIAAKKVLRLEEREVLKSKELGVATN
The experiment in a line: MTHFD2 inhibition assay (NAD(P)H-Glo luminescence).

The mark [3] stands for this setting: selectivity of MTHFD2 inhibition over MTHFD1, band.

Each structure is given as a SMILES string. pIC50: −log10 of the molar value.

Broadly, the pIC50 is −log10 of the IC50, conventionally taken in molar units. Take `COC[C@H]1CN(c2ccc3c4c(c(=O)oc3c2C)CN(C(=O)c2ccc(C(=O)NS(=O)(=O)N(C)C(C)C)c(OC3CCCC3)c2F)CC4)CCN1C` [Example 58, (R)-2-(cyclopentyloxy)-3-fluoro-N-(N-isopropyl-N-methylsulfamoyl)-4-(8-(3-(methoxymethyl)-4-methylpiperazin-1-yl)-7-methyl-5-oxo-1,3,4,5-tetrahydro-2H-chromeno[3,4-c]pyridine-3-carbonyl)benzamide]: the pIC50 in assay [1] and in assay [2] was 8.00 to 9.00 throughout.
`Cc1c(N2CCN(C)[C@@H](COC(C)C)C2)ccc2c3c(c(=O)oc12)CN(C(=O)c1ccc(C(=O)NS(=O)(=O)N2CCCC2)c(OC2CCC2)c1F)CC3` [Example 192, (R)-2-cyclobutoxy-3-fluoro-4-(8-(3-(isopropoxymethyl)-4-methylpiperazin-1-yl)-7-methyl-5-oxo-1,3,4,5-tetrahydro-2H-chromeno[3,4-c]pyridine-3-carbonyl)-N-(pyrrolidin-1-ylsulfonyl)benzamide]: the pIC50 in assay [1] and in assay [2] was 6.00 to 7.00 in each case. The “MTHFD1/MTHFD2 IC50 ratio” value in assay [2] (setting [3]) is reported as “F (<3)”.
`COC[C@H]1CN(c2ccc3c4c(c(=O)oc3c2C)CN(C(=O)c2ccc(C(=O)NS(=O)(=O)N3CCCC3)c(OC3CCC3)c2F)CC4)CCN1C(C)C` [Example 170, (R)-2-cyclobutoxy-3-fluoro-4-(8-(4-isopropyl-3-(methoxymethyl)piperazin-1-yl)-7-methyl-5-oxo-1,3,4,5-tetrahydro-2H-chromeno[3,4-c]pyridine-3-carbonyl)-N-(pyrrolidin-1-ylsulfonyl)benzamide]: the pIC50 is 6.00 to 7.00 in assay [1] and 7.00 to 8.00 in assay [2]. In assay [2] (setting [3]), the “MTHFD1/MTHFD2 IC50 ratio” value was “G (^ 3 to 9.0)”.
Consider `COC[C@H]1CN(c2ccc3c4c(c(=O)oc3c2C)CN(C(=O)c2ccc(C(=O)NS(=O)(=O)C3(C)CC3)c(O[C@@H]3C[C@@H]5C[C@@H]5C3)c2F)CC4)CCN1C` [Example 59, 2-(((1R,3r,5S)-bicyclo[3.1.0]hexan-3-yl)oxy)-3-fluoro-4-(8-((R)-3-(methoxymethyl)-4-methylpiperazin-1-yl)-7-methyl-5-oxo-1,3,4,5-tetrahydro-2H-chromeno[3,4-c]pyridine-3-carbonyl)-N-((1-methylcyclopropyl)sulfonyl)benzamide], for which the pIC50 in assay [1] and in assay [2] was 8.00 to 9.00 throughout. The “MTHFD1/MTHFD2 IC50 ratio” value in assay [2] (setting [3]) is recorded as “F (<3)”.
Consider `COC[C@H]1CN(c2cc(C)c3c4c(c(=O)oc3c2C)CN(C(=O)c2ccc(C(=O)NS(=O)(=O)C3(C)CC3)c(N(C)C3CC3)c2)CC4)CCN1C` [Example 83, (R)-2-(cyclopropyl(methyl)amino)-4-(8-(3-(methoxymethyl)-4-methylpiperazin-1-yl)-7,10-dimethyl-5-oxo-1,3,4,5-tetrahydro-2H-chromeno[3,4-c]pyridine-3-carbonyl)-N-((1-methylcyclopropyl)sulfonyl)benzamide], for which the figures for the pIC50 in assay [1] and in assay [2] were 7.00 to 8.00 and 8.00 to 9.00, respectively. Besides, the “MTHFD1/MTHFD2 IC50 ratio” value was “H* (>9.0 to 30)” in assay [2] (mean value after increased number of repeats, band) and “G (^ 3 to 9.0)” in assay [2] (setting [3]).
As for `COC[C@H]1CN(c2cc(C)c3c4c(c(=O)oc3c2C)CN(C(=O)c2ccc(C(=O)NS(=O)(=O)N(C)C)c(O[C@@H]3C[C@@H]5C[C@@H]5C3)c2F)CC4)CCN1C` [Example 11, 2-(((1R,3r,5S)-bicyclo[3.1.0]hexan-3-yl)oxy)-N-(N,N-dimethylsulfamoyl)-3-fluoro-4-(8-((R)-3-(methoxymethyl)-4-methylpiperazin-1-yl)-7,10-dimethyl-5-oxo-1,3,4,5-tetrahydro-2H-chromeno[3,4-c]pyridine-3-carbonyl)benzamide], the pIC50 in assay [1] and in assay [2] was 8.00 to 9.00 throughout. The “MTHFD1/MTHFD2 IC50 ratio” value in assay [2] (setting [3]) is reported as “F (<3)”.
`CCOc1c(C(=O)NS(=O)(=O)N2CC3CC3C2)ccc(C(=O)N2CCc3c(c(=O)oc4c(CC)c(N5CCN(C)[C@@H](COC)C5)ccc34)C2)c1F` (stereo partly drawn) [Example 214, N-((3-azabicyclo[3.1.0]hexan-3-yl)sulfonyl)-2-ethoxy-4-(7-ethyl-8-((R)-3-(methoxymethyl)-4-methylpiperazin-1-yl)-5-oxo-1,3,4,5-tetrahydro-2H-chromeno[3,4-c]pyridine-3-carbonyl)-3-fluorobenzamide]: the pIC50 in assay [1] and in assay [2] was 7.00 to 8.00 each time. Besides, the “MTHFD1/MTHFD2 IC50 ratio” value in assay [2] (setting [3]) is listed as “F (<3)”.
As to `CCOc1c(C(=O)NS(=O)(=O)N2C[C@H]3CCC[C@H]3C2)ccc(C(=O)N2CCc3c(c(=O)oc4c(C)c(N5CCN(C)[C@@H](COC)C5)cc(C)c34)C2)c1F` [Example 232], the pIC50 in assay [1] and in assay [2] was 7.00 to 8.00 throughout. Further, the “MTHFD1/MTHFD2 IC50 ratio” value in assay [2] (setting [3]) was “F (<3)”.
In the case of `COC[C@H]1CN(c2cc(C)c3c4c(c(=O)oc3c2C)CN(C(=O)c2ccc(C(=O)NS(=O)(=O)N(C)C)c(OC)c2F)CC4)CCN1C` [Example 134, (R)-N-(N,N-dimethylsulfamoyl)-3-fluoro-2-methoxy-4-(8-(3-(methoxymethyl)-4-methylpiperazin-1-yl)-7,10-dimethyl-5-oxo-1,3,4,5-tetrahydro-2H-chromeno[3,4-c]pyridine-3-carbonyl)benzamide], the pIC50 in assay [1] and in assay [2] was 7.00 to 8.00 throughout. In assay [2] (setting [3]), the “MTHFD1/MTHFD2 IC50 ratio” value is given as “G (^ 3 to 9.0)”.
With `COC[C@H]1CN(c2cc(C)c3c4c(c(=O)oc3c2C)CN(C(=O)c2ccc(C(=O)NS(=O)(=O)N3CCCCC3)c(OC)c2F)CC4)CCN1C` [Example 239], the pIC50 in assay [1] was 6.00 to 7.00; in assay [2] it was 7.00 to 8.00. For the same compound, the “MTHFD1/MTHFD2 IC50 ratio” value in assay [2] (setting [3]) was “H (>9.0 to 30)”.
In the same order, the values of `COC[C@H]1CN(c2cc(Cl)c3c4c(c(=O)oc3c2C)CN(C(=O)c2cc(N(C)C)c(C(=O)NS(=O)(=O)N3CC[C@@H](OC)C3)cc2F)CC4)CCN1C` [Example 285, 4-(10-chloro-8-((R)-3-(methoxymethyl)-4-methylpiperazin-1-yl)-7-methyl-5-oxo-1,3,4,5-tetrahydro-2H-chromeno[3,4-c]pyridine-3-carbonyl)-2-(dimethylamino)-5-fluoro-N-(((R)-3-methoxypyrrolidin-1-yl)sulfonyl)benzamide] are 6.00 to 7.00, 7.00 to 8.00 and “H (>9.0 to 30)”.
Turning to `CCOc1cc(C(=O)N2CCc3c(c(=O)oc4c(C)c(N5CCN(C)[C@@H](COC)C5)cc(C)c34)C2)c(F)cc1C(=O)NS(=O)(=O)N1CC2(CCC2)C1` [Example 220, (R)-N-((2-azaspiro[3.3]heptan-2-yl)sulfonyl)-2-ethoxy-5-fluoro-4-(8-(3-(methoxymethyl)-4-methylpiperazin-1-yl)-7,10-dimethyl-5-oxo-1,3,4,5-tetrahydro-2H-chromeno[3,4-c]pyridine-3-carbonyl)benzamide], the pIC50 was 6.00 to 7.00 in assay [1] and 7.00 to 8.00 in assay [2]. Moreover, the “MTHFD1/MTHFD2 IC50 ratio” value in assay [2] (setting [3]) was “H (>9.0 to 30)”.
Turning to `COC[C@H]1CN(c2cc(Cl)c3c4c(c(=O)oc3c2C)CN(C(=O)c2cc(N(C)C)c(C(=O)NS(=O)(=O)N3CCC(C(F)(F)F)CC3)cc2F)CC4)CCN1C` [Example 293, (R)-4-(10-chloro-8-(3-(methoxymethyl)-4-methylpiperazin-1-yl)-7-methyl-5-oxo-1,3,4,5-tetrahydro-2H-chromeno[3,4-c]pyridine-3-carbonyl)-2-(dimethylamino)-5-fluoro-N-((4-(trifluoromethyl)piperidin-1-yl)sulfonyl)benzamide], the results for the pIC50 in assay [1] and in assay [2] were 6.00 to 7.00 and 7.00 to 8.00, respectively. Moreover, the “MTHFD1/MTHFD2 IC50 ratio” value in assay [2] (setting [3]) is recorded as “J (>30)”.
Regarding `COC[C@H]1CN(c2cc(C)c3c4c(c(=O)oc3c2C)CN(C(=O)c2cc(OC3CCCC3)c(C(=O)NS(=O)(=O)N(C)C)c(C(F)(F)F)c2)CC4)CCN1C` [Example 153, (R)-2-(cyclopentyloxy)-N-(N,N-dimethylsulfamoyl)-4-(8-(3-(methoxymethyl)-4-methylpiperazin-1-yl)-7,10-dimethyl-5-oxo-1,3,4,5-tetrahydro-2H-chromeno[3,4-c]pyridine-3-carbonyl)-6-(trifluoromethyl)benzamide], the pIC50 in assay [1] is 5.30 to 6.00; in assay [2] it was 7.00 to 8.00. Besides, in assay [2] (setting [3]), the “MTHFD1/MTHFD2 IC50 ratio” value is recorded as “H (>9.0 to 30)”.
The matching figures for `COC[C@H]1CN(c2ccc3c4c(c(=O)oc3c2C)CN(C(=O)c2cc(N3CCC3)c(C(=O)NS(=O)(=O)N3CCCC3)cc2F)CC4)CCN1C` [Example 194, (R)-2-(azetidin-1-yl)-5-fluoro-4-(8-(3-(methoxymethyl)-4-methylpiperazin-1-yl)-7-methyl-5-oxo-1,3,4,5-tetrahydro-2H-chromeno[3,4-c]pyridine-3-carbonyl)-N-(pyrrolidin-1-ylsulfonyl)benzamide]: 6.00 to 7.00, 7.00 to 8.00 and “G (^ 3 to 9.0)”.

Values taken from US12662489B2 (Sitryx Therapeutics Limited, priority 2023, dated 2026).
